Results taken from patent US20060063818A1, “Hydantoin derivatives and deren verwendung als tace inhibitoren” (priority 2002, published 2006).
pIC50: −log10 of the molar value.

Biological target: T1, proTNF-α convertase enzyme (TACE) (Homo sapiens, UniProt P78536)
T1 construct: a partially purified, isolated enzyme assay, the enzyme being obtained from the membranes of TBP-1; endogenous in cells
Test: Isolated enzyme assay, proTNF-α convertase (TACE), fluorogenic peptide substrate
Assay type: biochemical
Conditions: partially purified enzyme from membranes of TBP-1; 26° C. for 4 hours; read-out: concentration of compound that gave 50% inhibition of TACE
Experimental: Recombinant human proMMP13 may be expressed and purified as described by Knauper et al. [V. Knauper et al., (1996) The Biochemical Journal 271:1544-1550 (1996)]. The purified enzyme can be used to monitor inhibitors of activity as follows: purified proMMP13 is activated using lmM amino phenyl mercuric […] (APMA), 20 hours at 21° C.; the activated MMP13 (11.25 ng per assay) is incubated for 4-5 hours at 35° C. in assay buffer (0.1M Tris-HCl, pH 7.5 containing 0.1M NaCl, 20 mM CaCl2, 0.02 mM ZnCl and 0.05% (w/v) Brij 35 using the synthetic substrate 7-methoxycoumarin-4-yl)acetyl.Pro.Leu.Gly.Leu.N-3-(2,4-dinitrophenyl)-L2,3-diaminopropionyl.Ala.Arg.NH2 in the presence or absence of inhibitors. Activity is determined by measuring the fluorescence at λex 328 nm and λem 393 nm. Percent inhibition is calculated as follows: % Inhibition is equal to the […].
The ability of the compounds to inhibit proTNF-α convertase enzyme (TACE) may be assessed using a partially purified, isolated enzyme assay, the enzyme being obtained from the membranes of TBP-1 as described by K. M. Mohler et al., (1994) Nature 370:218-220. […] The amount of inhibition is determined as for MMP13 except λex 485 nm and λem 538 nm were used. […]

T1 sequence (P78536 215-824): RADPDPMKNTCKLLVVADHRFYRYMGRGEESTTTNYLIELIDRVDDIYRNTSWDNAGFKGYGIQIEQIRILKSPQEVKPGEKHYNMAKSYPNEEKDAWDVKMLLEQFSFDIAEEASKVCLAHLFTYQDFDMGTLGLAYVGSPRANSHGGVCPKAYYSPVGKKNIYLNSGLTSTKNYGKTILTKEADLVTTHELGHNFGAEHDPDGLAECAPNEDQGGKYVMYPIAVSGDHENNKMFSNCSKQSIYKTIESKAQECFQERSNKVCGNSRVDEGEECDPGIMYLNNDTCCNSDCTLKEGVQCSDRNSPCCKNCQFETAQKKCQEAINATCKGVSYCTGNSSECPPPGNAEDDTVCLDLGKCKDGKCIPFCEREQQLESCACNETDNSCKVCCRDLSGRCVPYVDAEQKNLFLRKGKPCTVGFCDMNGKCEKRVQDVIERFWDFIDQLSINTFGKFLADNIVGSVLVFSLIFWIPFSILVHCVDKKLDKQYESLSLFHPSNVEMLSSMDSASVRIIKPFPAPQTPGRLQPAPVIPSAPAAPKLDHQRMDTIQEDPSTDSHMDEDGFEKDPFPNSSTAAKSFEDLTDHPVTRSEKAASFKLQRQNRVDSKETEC

pIC50: 6.89
SMILES: Cc1cc(COc2ccc(C3(C)CCN(CC4(c5ccccc5)NC(=O)NC4=O)C3=O)cc2)c2ccccc2n1 (stereo not shown) [compound 6, 5-{3-Methyl-3-[4-(2-methylquinolin-4-ylmethoxy)phenyl]-2oxopyrrolidin-1-ylmethyl}-5-phenylimidazolidine-2,4-dione]
